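Test compounds were applied to cells in 96-well plates for 48 hours at 5 doses. GI50 marks 50% less growth.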 The source made the active and inactive calls. Cut-off read from the data, not from the text of the source: active = GI50 up to about 1.1 µM and inactive = higher.
Legend:
Assay in all cases: DTP human tumour cell line panel, 48 h
UACC-257 = test system: UACC-257
TK-10 = test system: TK-10
U-251 = test system: U-251
SK-MEL-2 = test system: SK-MEL-2
SK-MEL-5 = test system: SK-MEL-5
A498 = test system: A498
COLO 205 = test system: COLO 205
NCI-H23 = test system: NCI-H23
EKVX = test system: EKVX
UO-31 = test system: UO-31
Hs-578T = test system: Hs-578T
SF-539 = test system: SF-539
OVCAR-8 = test system: OVCAR-8
IGROV-1 = test system: IGROV-1
HOP-92 = test system: HOP-92
SR = test system: SR
NCI-H522 = test system: NCI-H522
DU-145 = test system: DU-145
HOP-62 = test system: HOP-62
RXF 393 = test system: RXF 393
MCF7 = test system: MCF7
SK-OV-3 = test system: SK-OV-3
PC-3 = test system: PC-3
K562 = test system: K562
HCC 2998 = test system: HCC 2998
SF-268 = test system: SF-268
MDA-MB-435 = test system: MDA-MB-435
NCI-H460 = test system: NCI-H460
SN12C = test system: SN12C
OVCAR-3 = test system: OVCAR-3
HT-29 = test system: HT-29
HCT-15 = test system: HCT-15
NCI/ADR-RES = test system: NCI/ADR-RES
Malme-3M = test system: Malme-3M
UACC-62 = test system: UACC-62
A549 = test system: A549
OVCAR-5 = test system: OVCAR-5
SNB-19 = test system: SNB-19
SK-MEL-28 = test system: SK-MEL-28
786-0 = test system: 786-0
NCI-H226 = test system: NCI-H226
SNB-75 = test system: SNB-75
HL-60 = test system: HL-60
SW-620 = test system: SW-620
HCT-116 = test system: HCT-116
CCRF-CEM = test system: CCRF-CEM
OVCAR-4 = test system: OVCAR-4
LOX IMVI = test system: LOX IMVI
ACHN = test system: ACHN
SF-295 = test system: SF-295
CAKI-1 = test system: CAKI-1
BT-549 = test system: BT-549
MDA-MB-231 = test system: MDA-MB-231
MDA-N = test system: MDA-N
M14 = test system: M14
KM12 = test system: KM12
RPMI-8226 = test system: RPMI-8226
MOLT-4 = test system: MOLT-4
T47D = test system: T47D

Measured: GI50

O=C(Nc1nc2c(=O)[nH]cnc2s1)c1ccccc1
> 100 µM: HCT-15
active: SR 0.315 µM
inactive: UACC-257 > 100 µM | TK-10 68.9 µM | U-251 > 100 µM | SK-MEL-2 > 100 µM | SK-MEL-5 > 100 µM | A498 83.4 µM | COLO 205 > 100 µM | NCI-H23 > 100 µM | EKVX > 100 µM | UO-31 97.9 µM | Hs-578T 61.5 µM | SF-539 > 100 µM | OVCAR-8 > 100 µM | IGROV-1 71.8 µM | HOP-92 49.1 µM | NCI-H522 > 100 µM | DU-145 73.1 µM | HOP-62 > 100 µM | RXF 393 55.7 µM | MCF7 45.6 µM | SK-OV-3 > 100 µM | PC-3 > 100 µM | K562 62.5 µM | HCC 2998 > 100 µM | SF-268 > 100 µM | MDA-MB-435 88.5 µM | NCI-H460 41.5 µM | SN12C > 100 µM | OVCAR-3 > 100 µM | HT-29 50.4 µM | NCI/ADR-RES > 100 µM | Malme-3M > 100 µM | UACC-62 > 100 µM | A549 81.7 µM | OVCAR-5 > 100 µM | SNB-19 > 100 µM | SK-MEL-28 > 100 µM | 786-0 > 100 µM | NCI-H226 > 100 µM | SNB-75 44.2 µM | HL-60 53.8 µM | SW-620 > 100 µM | HCT-116 > 100 µM | CCRF-CEM > 100 µM | OVCAR-4 > 100 µM | LOX IMVI 64 µM | ACHN 91 µM | SF-295 > 100 µM | CAKI-1 43.6 µM | BT-549 > 100 µM

Cc1ccc(S(=O)(=O)N(c2ccccc2F)C2CCCCC2O)cc1 (centres undefined)
inactive: TK-10 97.1 µM | U-251 46.6 µM | MDA-MB-231 77.6 µM | MDA-N 19.9 µM | SK-MEL-2 29.4 µM | SK-MEL-5 20.7 µM | A498 38.1 µM | COLO 205 27.2 µM | NCI-H23 34.4 µM | EKVX 35.1 µM | UO-31 33.1 µM | Hs-578T 33 µM | SF-539 > 100 µM | OVCAR-8 78 µM | SR 24.4 µM | M14 74.1 µM | DU-145 24.9 µM | HOP-62 96.2 µM | MCF7 21.7 µM | SK-OV-3 22.3 µM | PC-3 35.4 µM | K562 42.2 µM | HCC 2998 74.6 µM | SF-268 38 µM | MDA-MB-435 19.4 µM | KM12 33.1 µM | NCI-H460 45.9 µM | SN12C 56.9 µM | OVCAR-3 29.5 µM | HT-29 43 µM | NCI/ADR-RES 42.4 µM | Malme-3M 58.7 µM | UACC-62 46.9 µM | A549 35.2 µM | OVCAR-5 > 100 µM | SNB-19 > 100 µM | SK-MEL-28 > 100 µM | 786-0 65.6 µM | NCI-H226 > 100 µM | SNB-75 20 µM | HL-60 23.3 µM | SW-620 64.4 µM | RPMI-8226 36.9 µM | HCT-116 18 µM | CCRF-CEM 56.9 µM | OVCAR-4 39.5 µM | LOX IMVI 38.8 µM | ACHN 57.7 µM | SF-295 > 100 µM | BT-549 14.6 µM
active: UACC-257 0.214 µM
55 µM: HCT-15

COc1ccc(-c2oc3cc(-c4cc5oc(-c6ccc(OC)cc6)c(-c6ccc(OC)cc6)c5cc4OC)c(OC)cc3c2-c2ccc(OC)cc2)cc1
inactive: UACC-257 > 100 µM | TK-10 > 100 µM | U-251 > 100 µM | MDA-MB-231 > 100 µM | MDA-N > 100 µM | SK-MEL-5 > 100 µM | A498 > 100 µM | COLO 205 > 100 µM | NCI-H23 > 100 µM | EKVX > 100 µM | UO-31 > 100 µM | Hs-578T > 100 µM | SF-539 > 100 µM | OVCAR-8 > 100 µM | IGROV-1 > 100 µM | HOP-92 > 100 µM | SR > 100 µM | M14 > 100 µM | NCI-H522 > 100 µM | DU-145 > 100 µM | HOP-62 > 100 µM | RXF 393 > 100 µM | MCF7 > 100 µM | MOLT-4 > 100 µM | SK-OV-3 > 100 µM | PC-3 > 100 µM | K562 > 100 µM | HCC 2998 > 100 µM | SF-268 > 100 µM | MDA-MB-435 > 100 µM | KM12 > 100 µM | NCI-H460 > 100 µM | SN12C > 100 µM | OVCAR-3 > 100 µM | HT-29 > 100 µM | NCI/ADR-RES > 100 µM | Malme-3M > 100 µM | UACC-62 > 100 µM | A549 > 100 µM | OVCAR-5 > 100 µM | SNB-19 > 100 µM | SK-MEL-28 > 100 µM | 786-0 > 100 µM | NCI-H226 > 100 µM | SNB-75 > 100 µM | SW-620 > 100 µM | RPMI-8226 > 100 µM | HCT-116 > 100 µM | CCRF-CEM > 100 µM | OVCAR-4 > 100 µM | LOX IMVI > 100 µM | ACHN > 100 µM | SF-295 > 100 µM | CAKI-1 > 100 µM | BT-549 > 100 µM
> 100 µM: HCT-15

NCCSc1nc2ccccc2c(=O)n1-c1ccccc1
active: SNB-19 0.236 µM
inactive: UACC-257 77.1 µM | TK-10 45.5 µM | U-251 34.4 µM | MDA-MB-231 > 100 µM | MDA-N 42.9 µM | SK-MEL-2 67 µM | SK-MEL-5 74.3 µM | A498 26.5 µM | COLO 205 > 100 µM | NCI-H23 50.2 µM | T47D 32.6 µM | EKVX > 100 µM | UO-31 24.4 µM | SF-539 32.7 µM | OVCAR-8 56.6 µM | IGROV-1 44.7 µM | HOP-92 10.3 µM | SR 11.9 µM | M14 53.8 µM | NCI-H522 30.8 µM | HOP-62 61.7 µM | MCF7 90.8 µM | MOLT-4 > 10 µM | SK-OV-3 > 100 µM | PC-3 27.9 µM | K562 39.9 µM | HCC 2998 44.3 µM | MDA-MB-435 23.9 µM | KM12 41.7 µM | SN12C > 100 µM | OVCAR-3 > 100 µM | HT-29 49.7 µM | NCI/ADR-RES 68.9 µM | Malme-3M 30.2 µM | UACC-62 26.4 µM | A549 43.7 µM | OVCAR-5 > 100 µM | SK-MEL-28 > 100 µM | 786-0 51.1 µM | NCI-H226 > 100 µM | SNB-75 33.9 µM | HL-60 32.8 µM | SW-620 45.5 µM | RPMI-8226 > 10 µM | HCT-116 60.3 µM | CCRF-CEM 45.7 µM | OVCAR-4 52.8 µM | LOX IMVI 71.9 µM | ACHN 21.6 µM | SF-295 28.2 µM | CAKI-1 90.6 µM | BT-549 27.2 µM
43.8 µM: HCT-15

CCOC(=O)C1C2CCC1CC(=NNc1ccc([N+](=O)[O-])cc1[N+](=O)[O-])C2 (centres undefined)
> 50 µM: HCT-15
inactive: UACC-257 > 50 µM | TK-10 > 50 µM | U-251 > 50 µM | MDA-MB-231 > 50 µM | MDA-N > 50 µM | SK-MEL-2 > 50 µM | SK-MEL-5 46.2 µM | COLO 205 > 50 µM | NCI-H23 > 50 µM | EKVX 30.3 µM | UO-31 > 50 µM | SF-539 > 50 µM | OVCAR-8 > 50 µM | IGROV-1 > 50 µM | HOP-92 15.8 µM | SR 18.6 µM | M14 > 50 µM | NCI-H522 > 50 µM | DU-145 > 50 µM | HOP-62 > 50 µM | RXF 393 > 50 µM | MCF7 > 50 µM | MOLT-4 31.4 µM | SK-OV-3 > 50 µM | PC-3 39.6 µM | K562 29.2 µM | HCC 2998 45.1 µM | SF-268 > 50 µM | MDA-MB-435 > 50 µM | KM12 48.9 µM | NCI-H460 > 50 µM | SN12C > 50 µM | OVCAR-3 > 50 µM | HT-29 47.2 µM | NCI/ADR-RES 4.38 µM | Malme-3M > 50 µM | UACC-62 > 50 µM | A549 37.6 µM | OVCAR-5 > 50 µM | SNB-19 > 50 µM | SK-MEL-28 > 50 µM | 786-0 > 50 µM | NCI-H226 37.4 µM | SNB-75 18 µM | SW-620 > 50 µM | RPMI-8226 42.4 µM | HCT-116 > 50 µM | CCRF-CEM > 50 µM | OVCAR-4 > 50 µM | LOX IMVI > 50 µM | ACHN > 50 µM | SF-295 8.99 µM | CAKI-1 14.8 µM | BT-549 > 50 µM

Source: ChEMBL document CHEMBL1201862, “PubChem BioAssay data set” (2004)
